Active and inactive are the calls of the source. The rule behind the calls is not given here.
Tests used:
[1] = Cmax in Sprague-Dawley rat at 100 mg/kg, ip by UPLC analysis; format: ADME, organism-based; design: dose 100 mg/kg, route ip; details: in vivo
Escherichia coli [2] = assay: Potentiation of meropenem-induced antibacterial activity against Escherichia coli C1541 expressing IMP-1 assessed as fold reduction in meropenem MIC at 10 ug/ml incubated for 18 to 20 hrs by CLSI based broth microtiter dilution method; format: functional; details: dose 10 µg/ml; time 18-20 hrs
[3] = Inhibition of bacterial recombinant full length N-terminal-TEV-His6-tagged VIM-5 expressed in Escherichia coli Transetta using FC-5 as substrate preincubated with enzyme for 10 mins followed by substrate addition by fluorescence based analysis; design: species or system Bacteria
Pseudomonas aeruginosa [4] = assay: Potentiation of meropenem-induced antibacterial activity against Pseudomonas aeruginosa W35 expressing VIM-2 assessed as fold reduction in meropenem MIC at 100 ug/ml incubated for 18 to 20 hrs by CLSI based broth microtiter dilution method; format: functional; details: dose 100 µg/ml; time 18-20 hrs
[5] = Inhibition of bacterial recombinant full length C-terminal-TEV-His6-tagged VIM-1 expressed in Escherichia coli Transetta using FC-5 as substrate preincubated with enzyme for 10 mins followed by substrate addition by fluorescence based analysis; design: species or system Bacteria
[6] = Toxicity in ICR mouse assessed as effect on histological architecture of spleen at 500 to 2000 mg/kg, ip administered for 14 days by hematoxylin and eosin staining based histopathological assay; format: organism-based; details: in vivo, 336 h, dose 500-2000 mg/kg, time 14 day
[7] = Inhibition of bacterial IMP-1 (1 to 246 residues) expressed in Escherichia coli Transetta (DE3) using FC-5 as substrate preincubated with enzyme for 10 mins followed by substrate addition by fluorescence based analysis; design: species or system Bacteria
[8] = Toxicity in ICR mouse assessed as change in overall appearance at 500 to 2000 mg/kg, ip administered for 14 days; format: organism-based; details: in vivo, 336 h, dose 500-2000 mg/kg, time 14 day
Escherichia coli [9] = assay: Synergistic antibacterial activity against Escherichia coli C1541 expressing VIM-2 assessed as fractional inhibitory concentration index incubated for 18 to 20 hrs in presence of meropenem and 1 uM of zinc sulfate by checkerboard microdilution assay; format: functional; details: time 18-20 hrs
Escherichia coli [10] = assay: Antibacterial activity against Escherichia coli C1580 expressing VIM-2 assessed as elongated and filamentous bacterial cells at 20 ug/ml incubated for 1 hr in presence of meropenem by confocal microscopy; format: functional, organism-based; details: dose 20.0 µg/ml
Escherichia coli [11] = assay: Bactericidal activity against Escherichia coli C1580 expressing VIM-2 assessed as induction of bacterial ultrastructural changes by measuring breakdown of cell wall with leakage of cellular contents at 20 ug/ml incubated for 1 hr in presence of meropenem by transmission electron microscopy; format: functional, organism-based; details: dose 20.0 µg/ml
Pseudomonas aeruginosa [12] = assay: Induction of morphological changes in Pseudomonas aeruginosa W35 expressing VIM-2 assessed as elongated morphology with localized swelling at 10 ug/ml incubated for 1 hr in presence of meropenem by confocal microscopic analysis; format: functional, organism-based; details: dose 10.0 µg/ml
Escherichia coli [13] = assay: Potentiation of meropenem-induced antibacterial activity against Escherichia coli C1580 expressing VIM-2 assessed as fold reduction in meropenem MIC at 10 ug/ml incubated for 18 to 20 hrs by CLSI based broth microtiter dilution method; format: functional; details: dose 10 µg/ml; time 18-20 hrs

## O=C(O)c1nccn1Cc1ccncc1
[1]
  Cmax: 143 µg/mL
Escherichia coli [2]
  fold change (FC): 1
[3]
  IC50: 5.78 µM
Pseudomonas aeruginosa [4]
  fold change (FC): 16
[5]
  IC50: 29.5 µM
[6]
  Activity: Non-Toxic
[7]
  IC50: > 300 µM
[8]
  Activity: Non-Toxic
Escherichia coli [9]
  fractional inhibitory concentration index (FICI): 0.05
Escherichia coli [10]
  Activity: Active
Escherichia coli [11]
  Activity: Active
Pseudomonas aeruginosa [12]
  Activity: Active
Escherichia coli [13]
  fold change (FC): 32

— ChEMBL document CHEMBL5154646, “Structure-guided optimization of 1H-imidazole-2-carboxylic acid derivatives affording potent VIM-Type metallo-β-lactamase inhibitors” (Eur J Med Chem, 2022)
